# Laboratory results taken from paper PMC4062819, “N-Demethylation and N-oxidation of imipramine in rat thoracic aortic endothelial cells” (In Vitro Cellular & Developmental Biology. Animal, 2014).
# Key:
# CYP2C11 and CYP3A2 = settings: read-out: K m (μmol/L); NADPH-regenerating system; pH 7.4; 37 °C; apparent Km; homogenate, mixed CYPs assigned by anti-CYP antibodies
# Description: desipramine (N-demethylate) formation in cell homogenate, HPLC-UV on CYP2C11 and CYP3A2
# [1] = tested on: T1, FMO (flavin-containing monooxygenase); test: imipramine N-oxide formation in cell homogenate, HPLC-UV; assay type: biochemical, Rattus norvegicus; settings: NADPH-regenerating system, pH 7.4, 37 °C, apparent Km, FMO isoform unresolved
# T1 construct: gene Fmo1; native, homogenate of cultured thoracic aortic endothelial cells; FMO isoform not resolved
# Description: imipramine N-oxide formation in cell homogenate, HPLC-UV on FMO (flavin-containing monooxygenase)
# [2] = tested on: T1, FMO (flavin-containing monooxygenase); test: inhibition of imipramine N-oxidation in cell homogenate, HPLC-UV; assay type: biochemical, Rattus norvegicus; settings: competitive with imipramine, methimazole 1 μmol/L, NADPH-regenerating system, 37 °C, FMO isoform unresolved, read-out: apparent K i
Structure (SMILES),Km (CYP2C11 and CYP3A2) [µmol/L],Km [1] [µM],Ki [2] [nM]
CN(C)CCCN1c2ccccc2CCc2ccccc21 [imipramine],39.9 ± 5.3,20 ± 4.5,–
Cn1cc[nH]c1=S [methimazole],–,–,800
